Source: PMC8910920 (International Journal of Molecular Sciences, 2022)

What was measured:
[1] = system: CCI rats, mechanical hypersensitivity; experiment: CCI model of neuropathic pain, mechanical sensitivity (automatized von Frey test); assay type: in vivo, rat
Description: The CCI model of neuropathic pain allowed the evaluation of the effect RGM8-51 on cold, heat and mechanical sensitivity, as assayed by the acetone test, the Hargreaves test, and the automatized von Frey test, respectively. RGM8-51 was applied either locally (i.pl.; 10 µg) in the affected paw or systemically (intraperitoneally, i.p., 10 and 30 mg/kg) and the effect evaluated before (Baseline) and after CCI surgery. The nocifensive response after administration of RGM8-51 was compared with that of vehicle, while non-operated animals and the uninjured (contralateral) hind paw in CCI animals were used as controls.
Adult male Sprague-Dawley rats (weighing 200–220 g/6–8 weeks old) were used in these experiments. All experimental procedures were conducted according to the animal welfare guidelines of the European Community (European Directive 2010/63/UE) to minimize animal suffering and were approved by Universidad Complutense de Madrid and Comunidad de Madrid ethical committees on animal experimentation (PROEX 207.8/21). […]
For behavioral testing, rats were placed in individual methacrylate boxes with a wire mesh floor, and after a period of 15 min acclimatization, the cold, heat and mechanical sensitivity of the ipsilateral and contralateral paws was determined. Cold sensitivity was assessed with the acetone test. In total, 100 µL acetone were locally applied to the plantar surface of the hind paw and the duration of the subsequent nocifensive response (licking, brushing, and flinching of the paw) was determined during 60 s. Acetone application and assessment were repeated 2 times with a 5 min interval and the sum of the two values was recorded. Heat sensitivity was determined with the Hargreaves test, which uses infrared light as a heat source, with a Hargreaves apparatus (Serie 8, Model 336, IITC Life Science, Woodland Hills, CA USA). The light beam was directed to the plantar surface of the hind paw and the time from the beginning of irradiation to the appearance of first paw withdrawal movement was measured (paw withdrawal latency). […]

[2] = Partition coefficient (Log D); assay type: physicochemical
Description: These studies were subcontracted to Eurofins-CEREP or Eurofins-PANLABS. Briefly, agonists and antagonist assays were performed in cell cultures overexpressing the corresponding channel (CHO: TRPV1 and TRPA1; HEK293: TRPV3 and ASIC3). In vitro pharmacology, cellular channel functional assays: the compound was prepared in assay buffer to the final concentration, 10 μM. The compound wells, reference agonist and background vehicle controls were prepared in DMSO at 0.3%. […] The reference agonist for each Ion Channel was included at Emax (the concentration where the reference agonist elicited a maximal response). The agonist assay was conducted on fluorimeter instruments where the test compound, vehicle controls, and reference agonist were added to the assay plate after a fluorescence baseline was established. […] For the antagonist assay, the compound was pre-incubated for five minutes at room temperature, and then challenged with the EC80 concentration of the reference agonist after establishment of a fluorescence baseline. […] Binding assay results are expressed as a percent of control specific binding. […] Aqueous solubility (μM) was determined by comparing the peak area of the principal peak in a calibration standard (200 μM) containing organic solvent (methanol/water, 60/40, v/v) with the peak area of the corresponding peak in a buffer sample. […] Permeability was measured in CACO-2 monolayers.

For C[C@@H]1C(=O)N(C[C@H](Cc2ccccc2)N(Cc2ccccc2)Cc2ccccc2)[C@]1(Cc1ccccc1)C(=O)OC(C)(C)C [RGM8-51, 4(S)-Benzyl-3S-methyl-4-(tert-butoxy)carbonyl-1-[(2′S-dibenzylamino-3′-phenyl)prop-1′-yl]-2-oxoazetidine], the “mechanical sensitivity in the absence of neuropathy” value ([1]; baseline, non-operated) was “could not be observed”, the “mechanical hypersensitivity (paw withdrawal threshold) in CCI rats” value ([1]; i.p. 10 and 30 mg/kg) was “dose-dependently reverted paw withdrawal thresholds” and the “mechanical hypersensitivity (paw withdrawal threshold) in CCI rats” value ([1]; local (i.pl.) 10 µg) was “effect also being produced”. For the same molecule, the “Log D” value [2] was 5.7 and the logD ([2]; organic phase/aqueous buffer partition) was 5.77.
